Laboratory results taken from US20240018123A1, “COMPOUND FOR INHIBITING OR DISINTEGRATING ANDROGEN RECEPTOR, AND PHARMACEUTICAL USE THEREOF” (KOREA RESEARCH INSTITUTE OF CHEMICAL TECHNOLOGY, priority 2020, published 2024).
Read-outs that look alike come from different tables or passages of the source.

Legend:
LNCaP cells [1] = test system: LNCaP cells
Androgen receptor (AR) = target: T1, Androgen receptor (AR) (Homo sapiens, UniProt P10275, T878A); test: Assessment of AR proteolytic activity (Western blotting of LNCap cell lysates); assay type: cell-based; details: 24 hours of treatment, Western blotting quantified with Image J; for remaining activity at 1 µM: read-out: Degradation (1 μM treated in LNCaP, % AR remaining)
T1 construct: 5.5×10^5 LNCap cells were injected into each well of a 6-well plate; endogenous in cells; host or cells: LNCaP
T1 sequence (P10275 1-920 T878A): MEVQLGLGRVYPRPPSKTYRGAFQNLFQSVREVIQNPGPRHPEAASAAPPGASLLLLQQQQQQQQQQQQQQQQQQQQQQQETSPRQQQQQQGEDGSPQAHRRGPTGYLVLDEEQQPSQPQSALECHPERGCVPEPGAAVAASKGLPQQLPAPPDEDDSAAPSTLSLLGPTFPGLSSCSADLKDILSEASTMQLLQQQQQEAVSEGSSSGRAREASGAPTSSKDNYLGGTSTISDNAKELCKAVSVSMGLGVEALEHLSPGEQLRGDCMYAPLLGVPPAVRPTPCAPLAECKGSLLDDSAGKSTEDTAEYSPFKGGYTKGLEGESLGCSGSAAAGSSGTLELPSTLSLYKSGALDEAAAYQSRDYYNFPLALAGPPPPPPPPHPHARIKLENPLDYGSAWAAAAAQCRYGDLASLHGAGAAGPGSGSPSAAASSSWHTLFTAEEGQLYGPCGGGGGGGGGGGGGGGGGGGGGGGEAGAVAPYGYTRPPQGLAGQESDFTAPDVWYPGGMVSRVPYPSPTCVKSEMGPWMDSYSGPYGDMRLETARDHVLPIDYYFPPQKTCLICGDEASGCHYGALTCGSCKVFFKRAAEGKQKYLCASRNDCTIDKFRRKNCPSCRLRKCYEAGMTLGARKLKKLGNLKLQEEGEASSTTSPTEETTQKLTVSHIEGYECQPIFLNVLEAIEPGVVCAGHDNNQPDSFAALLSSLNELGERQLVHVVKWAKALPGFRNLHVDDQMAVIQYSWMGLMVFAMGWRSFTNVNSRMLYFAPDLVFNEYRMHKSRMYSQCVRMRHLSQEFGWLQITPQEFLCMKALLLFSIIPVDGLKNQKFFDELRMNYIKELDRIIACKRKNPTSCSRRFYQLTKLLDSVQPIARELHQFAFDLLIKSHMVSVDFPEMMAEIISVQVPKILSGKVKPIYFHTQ
Method in brief: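 AR degradation read by Western blot densitometry on RIPA lysates (pH 7.5, protease inhibitor cocktail). Lysates came from LNCap cells, 5.5×10^5 per well, exposed to compound for 24 hours.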

LNCaP cells [2] = test: Cytotoxicity assessment (Cell-titer-glo cell viability), LNCaP
VCaP cells = test: Cytotoxicity assessment (Cell-titer-glo cell viability), VCaP
Protocol: In order to evaluate the androgen receptor (AR) cytotoxicity of the compounds according to the present invention, the following experiment was conducted. Specifically, 1.5×10^3 (LNCaP) or 4×10^3 (VCaP, 22RV1), respectively, of LNCaP, VCaP, and 22RV1 cells were injected into each well of a 96-well plate. The next day, each well was treated with the compound at a final concentration of 3 nM, 10 nM, 30 nM, 100 nM, 300 nM, 1 μM, 3 μM, and 10 μM. […] After 6 days of treatment, Cell-titer-glo (promega) was treated and reacted for 10 minutes, and cell viability was measured with a multimode plate reader (PerkinElmer, Inc.), and the change was quantified compared to when DMSO was treated.

[3] = read-out: LNCAP (CC50), LNCaP cells, 6 days of treatment, Cell-titer-glo, vs DMSO
[4] = read-out: VCaP (CC50), VCaP cells, 6 days of treatment, Cell-titer-glo, vs DMSO
[5] = Homo sapiens, LNCaP, 144 h, read-out: LNCAP (CC50, μM)
[6] = Homo sapiens, VCaP, 144 h, read-out: VCaP (CC50, μM)

| Compound | CC50 (LNCaP cells [1]) [µM] | Degradation (1 μM treated in LNCaP, % AR remaining) (Androgen receptor (AR)) [%] | CC50 (LNCaP cells [2]; [3]) [µM] | CC50 (VCaP cells; [4]) [µM] | CC50 (LNCaP cells [2]; [5]) [µM] | CC50 (VCaP cells; [6]) [µM] | remaining activity at 1 µM (Androgen receptor (AR)) [%] |
| --- | --- | --- | --- | --- | --- | --- | --- |
| CC1(C)C(NC(=O)c2ccc(OCCOCCOCCOCCOCCNc3cccc4nnn(C5CCC(=O)NC5=O)c(=O)c34)cc2)C(C)(C)C1Oc1ccc(C#N)c(Cl)c1 (centres unmarked) [Example 2, N-((1r,3r)-3-(3-chloro-4-cyanophenoxy)-2,2,4,4-tetramethylcyclobutyl)-4-((14-((3-(2,6-dioxopiperidin-3-yl)-4-oxo-3,4-dihydrobenzo[d][1,2,3]triazin-5-yl)amino)-3,6,9,12-tetraoxatetradecyl)oxy)benzamide] | 4.93 | 100 | – | – | – | – | – |
| CC1(C)C(NC(=O)c2ccc(OCCOCCOCCOCCOCCOCCCCNc3cccc4nnn(C5CCC(=O)NC5=O)c(=O)c34)cc2)C(C)(C)C1Oc1ccc(C#N)c(Cl)c1 (centres unmarked) [Example 5, N-((1r,3r)-3-(3-chloro-4-cyanophenoxy)-2,2,4,4-tetramethylcyclobutyl)-4-((19-((3-(2,6-dioxopiperidin-3-yl)-4-oxo-3,4-dihydrobenzo[d][1,2,3]triazin-5-yl)amino)-3,6,9,12,15-pentaoxanonadecyl)oxy)benzamide] | 1.6 | 6 | – | – | – | – | – |
| CC1(C)[C@H](NC(=O)c2ccc(N3CCN(CC4CCN(c5cccc6nnn(C7CCC(=O)NC7=O)c(=O)c56)CC4)CC3)cc2)C(C)(C)[C@H]1Oc1ccc(C#N)c(Cl)c1 (some centres unmarked) [Example 7, N-((1r,3r)-3-(3-chloro-4-cyanophenoxy)-2,2,4,4-tetramethylcyclobutyl)-4-(4-((1-(3-(2,6-dioxopiperidin-3-yl)-4-oxo-3,4-dihydrobenzo[d][1,2,3]triazin-5-yl)piperidin-4-yl)methyl)piperazin-1-yl)benzamide] | 0.902 | 24.3 | – | – | – | – | – |
| CC1(C)[C@H](NC(=O)c2ccc(N3CCN(CC4CCN(C(=O)CNc5ccc6nnn(C7CCC(=O)NC7=O)c(=O)c6c5)CC4)CC3)cc2)C(C)(C)[C@H]1Oc1ccc(C#N)c(Cl)c1 (some centres unmarked) [Example 9, N-((1r,3r)-3-(3-chloro-4-cyanophenoxy)-2,2,4,4-tetramethylcyclobutyl)-4-(4-((1-((3-(2,6-dioxopiperidin-3-yl)-4-oxo-3,4-dihydrobenzo[d][1,2,3]triazin-6-yl)glycyl)piperidin-4-yl)methyl)piperazin-1-yl)benzamide] | 0.117 | 39.9 | – | – | – | – | – |
| CC1(C)[C@H](NC(=O)c2ccc(N3CCN(CC4CCN(c5ccc6c(=O)n(C7CCC(=O)NC7=O)nnc6c5)CC4)CC3)cc2)C(C)(C)[C@H]1Oc1ccc(C#N)c(Cl)c1 (some centres unmarked) [Example 12, N-((1r,3r)-3-(3-chloro-4-cyanophenoxy)-2,2,4,4-tetramethylcyclobutyl)-4-(4-((1-(3-(2,6-dioxopiperidin-3-yl)-4-oxo-3,4-dihydrobenzo[d][1,2,3]triazin-7-yl)piperidin-4-yl)methyl)piperazin-1-yl)benzamide] | 1.31 | 7 | – | – | – | – | – |
| CC1(C)C(NC(=O)c2ccc(OCCOCCOCCOCCOCCOCCCCNC(=O)CNc3cccc4nnn(C5CCC(=O)NC5=O)c(=O)c34)cc2)C(C)(C)C1Oc1ccc(C#N)c(Cl)c1 (centres unmarked) [Example 14, N-((1r,3r)-3-(3-chloro-4-cyanophenoxy)-2,2,4,4-tetramethylcyclobutyl)-4-((22-((3-(2,6-dioxopiperidin-3-yl)-4-oxo-3,4-dihydrobenzo[d][1,2,3]triazin-5-yl)amino)-21-oxo-3,6,9,12,15-pentaoxa-20-azadocosyl)oxy)benzamide] | 4.02 | 35.3 | – | – | – | – | – |
| CC1(C)C(NC(=O)c2ccc(OCCOCCOCCOCCOCCOCCCCNc3ccc4nnn(C5CCC(=O)NC5=O)c(=O)c4c3)cc2)C(C)(C)C1Oc1ccc(C#N)c(Cl)c1 (centres unmarked) [Example 17, N-((1r,3r)-3-(3-chloro-4-cyanophenoxy)-2,2,4,4-tetramethylcyclobutyl)-4-((19-((3-(2,6-dioxopiperidin-3-yl)-4-oxo-3,4-dihydrobenzo[d][1,2,3]triazin-6-yl)amino)-3,6,9,12,15-pentaoxanonadecyl)oxy)benzamide] | 0.835 | 6.7 | – | – | – | – | – |
| CC1(C)[C@H](NC(=O)c2ccc(N3CCN(CCC4CCN(C(=O)C5CCN(c6ccc7nnn(C8CCC(=O)NC8=O)c(=O)c7c6)CC5)CC4)CC3)cc2)C(C)(C)[C@H]1Oc1ccc(C#N)c(Cl)c1 (some centres unmarked) [Example 26, N-((1r,3r)-3-(3-chloro-4-cyanophenoxy)-2,2,4,4-tetramethylcyclobutyl)-4-(4-(2-(1-(1-(3-(2,6-dioxopiperidin-3-yl)-4-oxo-3,4-dihydrobenzo[d][1,2,3]triazin-6-yl)piperidine-4-carbonyl)piperidin-4-yl)ethyl)piperazin-1-yl)benzamide] | – | 7 | 0.361 | 0.0516 | – | – | – |
| CC1(C)[C@H](NC(=O)c2ccc(N3CCN(CCOC4CCN(C(=O)CNc5ccc6nnn(C7CCC(=O)NC7=O)c(=O)c6c5)CC4)CC3)cc2)C(C)(C)[C@H]1Oc1ccc(C#N)c(Cl)c1 (some centres unmarked) [Example 31, N-((1r,3r)-3-(3-chloro-4-cyanophenoxy)-2,2,4,4-tetramethylcyclobutyl)-4-(4-(2-((1-((3-(2,6-dioxopiperidin-3-yl)-4-oxo-3,4-dihydrobenzo[d][1,2,3]triazin-6-yl)glycyl)piperidin-4-yl)oxy)ethyl)piperazin-1-yl)benzamide] | – | – | – | – | 0.852 | 0.0571 | 5 |
| CC1(C)[C@H](NC(=O)c2ccc(N3CCN(CCOC4CCN(C(=O)COc5ccc6nnn(C7CCC(=O)NC7=O)c(=O)c6c5)CC4)CC3)cc2)C(C)(C)[C@H]1Oc1ccc(C#N)c(Cl)c1 (some centres unmarked) [Example 32, N-((1r,3r)-3-(3-chloro-4-cyanophenoxy)-2,2,4,4-tetramethylcyclobutyl)-4-(4-(2-((1-(2-((3-(2,6-dioxopiperidin-3-yl)-4-oxo-3,4-dihydrobenzo[d][1,2,3]triazin-6-yl)oxy)acetyl)piperidin-4-yl)oxy)ethyl)piperazin-1-yl)benzamide] | – | – | – | – | 1.3 | 0.141 | 2 |
| CC1(C)[C@H](NC(=O)c2ccc(N3CCN(CCOC4CCN(c5ccc6nnn(C7CCC(=O)NC7=O)c(=O)c6c5)CC4)CC3)cc2)C(C)(C)[C@H]1Oc1ccc(C#N)c(Cl)c1 (some centres unmarked) [Example 34, N-((1r,3r)-3-(3-chloro-4-cyanophenoxy)-2,2,4,4-tetramethylcyclobutyl)-4-(4-(2-((1-(3-(2,6-dioxopiperidin-3-yl)-4-oxo-3,4-dihydrobenzo[d][1,2,3]triazin-6-yl)piperidin-4-yl)oxy)ethyl)piperazin-1-yl)benzamide] | – | – | – | – | 0.523 | 0.0702 | 11 |
| N-((1r,3r)-3-(3-chloro-4-cyanophenoxy)-2,2,4,4-tetramethylcyclobutyl)-4-(4-(2-((1-(1-(3-(2,6-dioxopiperidin-3-yl)-4-oxo-3,4-dihydrobenzo[d][1,2,3]triazin-6-yl)azetidine-3-carbonyl)piperidin-4-yl)oxy)ethyl)piperazin-1-yl)benzamide [Example 33] | – | 14 | 0.762 | 0.057 | – | – | – |
| N-((1r,3r)-3-(3-chloro-4-cyanophenoxy)-2,2,4,4-tetramethylcyclobutyl)-4-(4-(2-((1-(1-(3-(2,6-dioxopiperidin-3-yl)-4-oxo-3,4-dihydrobenzo[d][1,2,3]triazin-6-yl)piperidine-4-carbonyl piperidin-4-yl)oxy)ethyl)piperazin-1-yl)benzamide [Example 30] | – | 4 | 0.847 | 0.08 | – | – | – |
